The record followed here is patent US9340590B2 (priority 2011, dated 2016).

Like-named read-outs stand apart in the source and are kept apart here. Positions of bridges follow the written chain, without caps; N, C: chain ends. Residues, ends and D or L forms follow the SMILES beside them.

Holding throughout (experiment): cell-based
Experiment [1] deals with hNav1.5 (Homo sapiens, UniProt Q14524).
Experiment [2] concerns the target hNav1.7 (Homo sapiens, UniProt Q15858). Type of experiment: cell-based. The following applies: IonWorks Quattro, read-out: IWQ Use Nav1.7. (In general: Patch clamp records ionic current or voltage across a cell membrane.)
The target in experiment [3] is hNav1.3 (Homo sapiens, UniProt Q9NY46). As to conditions: IonWorks Quattro, read-out: IWQ Use Nav1.3.
Sequence of hNav1.3 (Q9NY46 whole entry, looked up): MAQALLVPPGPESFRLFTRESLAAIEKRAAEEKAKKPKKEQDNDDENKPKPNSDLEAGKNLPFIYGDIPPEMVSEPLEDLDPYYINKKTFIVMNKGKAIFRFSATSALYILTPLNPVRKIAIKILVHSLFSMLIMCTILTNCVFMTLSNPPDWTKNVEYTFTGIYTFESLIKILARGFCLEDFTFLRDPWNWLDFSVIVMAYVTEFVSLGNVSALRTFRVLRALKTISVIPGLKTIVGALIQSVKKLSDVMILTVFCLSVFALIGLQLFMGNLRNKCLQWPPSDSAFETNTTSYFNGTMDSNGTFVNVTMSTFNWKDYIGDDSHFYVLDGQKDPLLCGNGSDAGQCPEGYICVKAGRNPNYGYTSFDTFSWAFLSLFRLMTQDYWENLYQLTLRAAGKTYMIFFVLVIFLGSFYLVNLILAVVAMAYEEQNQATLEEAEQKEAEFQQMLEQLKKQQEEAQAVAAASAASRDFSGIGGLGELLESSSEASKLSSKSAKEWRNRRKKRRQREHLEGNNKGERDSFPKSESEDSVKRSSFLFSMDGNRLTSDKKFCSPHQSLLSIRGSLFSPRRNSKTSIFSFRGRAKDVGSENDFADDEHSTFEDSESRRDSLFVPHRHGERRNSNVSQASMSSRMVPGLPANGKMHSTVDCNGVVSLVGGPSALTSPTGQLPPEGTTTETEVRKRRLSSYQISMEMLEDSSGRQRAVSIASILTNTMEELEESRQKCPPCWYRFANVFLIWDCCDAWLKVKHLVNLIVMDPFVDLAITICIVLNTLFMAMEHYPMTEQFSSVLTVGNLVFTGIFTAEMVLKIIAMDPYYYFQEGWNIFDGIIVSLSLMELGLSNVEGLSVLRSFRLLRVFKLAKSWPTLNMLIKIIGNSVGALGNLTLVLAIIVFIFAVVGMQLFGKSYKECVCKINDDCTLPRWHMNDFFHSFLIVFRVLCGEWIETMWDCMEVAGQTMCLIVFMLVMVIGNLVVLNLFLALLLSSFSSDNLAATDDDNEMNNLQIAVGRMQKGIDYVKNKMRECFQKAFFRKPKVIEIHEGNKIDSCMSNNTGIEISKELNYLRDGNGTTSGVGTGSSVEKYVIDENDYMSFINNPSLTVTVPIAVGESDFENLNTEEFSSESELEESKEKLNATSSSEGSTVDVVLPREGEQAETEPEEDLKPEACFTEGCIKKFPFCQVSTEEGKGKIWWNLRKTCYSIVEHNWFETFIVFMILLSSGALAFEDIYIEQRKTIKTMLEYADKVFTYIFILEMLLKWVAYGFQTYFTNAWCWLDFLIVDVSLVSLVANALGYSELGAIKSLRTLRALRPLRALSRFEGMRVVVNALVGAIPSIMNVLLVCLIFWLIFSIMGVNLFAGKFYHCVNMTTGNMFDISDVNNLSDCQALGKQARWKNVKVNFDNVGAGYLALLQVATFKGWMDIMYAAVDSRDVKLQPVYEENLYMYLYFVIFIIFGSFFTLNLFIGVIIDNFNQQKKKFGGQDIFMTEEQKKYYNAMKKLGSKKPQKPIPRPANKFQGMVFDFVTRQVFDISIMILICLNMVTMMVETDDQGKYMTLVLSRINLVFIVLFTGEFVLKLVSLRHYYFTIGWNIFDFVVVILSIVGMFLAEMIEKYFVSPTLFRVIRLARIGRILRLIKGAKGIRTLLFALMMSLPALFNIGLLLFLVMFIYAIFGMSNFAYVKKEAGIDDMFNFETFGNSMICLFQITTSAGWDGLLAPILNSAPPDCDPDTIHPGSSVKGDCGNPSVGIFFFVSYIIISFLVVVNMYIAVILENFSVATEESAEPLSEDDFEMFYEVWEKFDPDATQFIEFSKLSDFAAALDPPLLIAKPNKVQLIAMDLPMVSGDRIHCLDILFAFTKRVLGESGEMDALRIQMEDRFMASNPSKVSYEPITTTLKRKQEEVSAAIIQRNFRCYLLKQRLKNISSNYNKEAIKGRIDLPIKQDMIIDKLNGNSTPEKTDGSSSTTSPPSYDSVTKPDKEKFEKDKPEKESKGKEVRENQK
Where [4] appears, read: IonWorks Quattro, clamped to −110 mV, depolarized to −10 mV, 5 min after compound, n=2, read-out: IWQ Use Nav1.5.
Setting [5] is: clamped to −110 mV, depolarized to −10 mV, 5 min after compound, n=2.

Sequence of hNav1.7 (Q15858 whole entry, looked up): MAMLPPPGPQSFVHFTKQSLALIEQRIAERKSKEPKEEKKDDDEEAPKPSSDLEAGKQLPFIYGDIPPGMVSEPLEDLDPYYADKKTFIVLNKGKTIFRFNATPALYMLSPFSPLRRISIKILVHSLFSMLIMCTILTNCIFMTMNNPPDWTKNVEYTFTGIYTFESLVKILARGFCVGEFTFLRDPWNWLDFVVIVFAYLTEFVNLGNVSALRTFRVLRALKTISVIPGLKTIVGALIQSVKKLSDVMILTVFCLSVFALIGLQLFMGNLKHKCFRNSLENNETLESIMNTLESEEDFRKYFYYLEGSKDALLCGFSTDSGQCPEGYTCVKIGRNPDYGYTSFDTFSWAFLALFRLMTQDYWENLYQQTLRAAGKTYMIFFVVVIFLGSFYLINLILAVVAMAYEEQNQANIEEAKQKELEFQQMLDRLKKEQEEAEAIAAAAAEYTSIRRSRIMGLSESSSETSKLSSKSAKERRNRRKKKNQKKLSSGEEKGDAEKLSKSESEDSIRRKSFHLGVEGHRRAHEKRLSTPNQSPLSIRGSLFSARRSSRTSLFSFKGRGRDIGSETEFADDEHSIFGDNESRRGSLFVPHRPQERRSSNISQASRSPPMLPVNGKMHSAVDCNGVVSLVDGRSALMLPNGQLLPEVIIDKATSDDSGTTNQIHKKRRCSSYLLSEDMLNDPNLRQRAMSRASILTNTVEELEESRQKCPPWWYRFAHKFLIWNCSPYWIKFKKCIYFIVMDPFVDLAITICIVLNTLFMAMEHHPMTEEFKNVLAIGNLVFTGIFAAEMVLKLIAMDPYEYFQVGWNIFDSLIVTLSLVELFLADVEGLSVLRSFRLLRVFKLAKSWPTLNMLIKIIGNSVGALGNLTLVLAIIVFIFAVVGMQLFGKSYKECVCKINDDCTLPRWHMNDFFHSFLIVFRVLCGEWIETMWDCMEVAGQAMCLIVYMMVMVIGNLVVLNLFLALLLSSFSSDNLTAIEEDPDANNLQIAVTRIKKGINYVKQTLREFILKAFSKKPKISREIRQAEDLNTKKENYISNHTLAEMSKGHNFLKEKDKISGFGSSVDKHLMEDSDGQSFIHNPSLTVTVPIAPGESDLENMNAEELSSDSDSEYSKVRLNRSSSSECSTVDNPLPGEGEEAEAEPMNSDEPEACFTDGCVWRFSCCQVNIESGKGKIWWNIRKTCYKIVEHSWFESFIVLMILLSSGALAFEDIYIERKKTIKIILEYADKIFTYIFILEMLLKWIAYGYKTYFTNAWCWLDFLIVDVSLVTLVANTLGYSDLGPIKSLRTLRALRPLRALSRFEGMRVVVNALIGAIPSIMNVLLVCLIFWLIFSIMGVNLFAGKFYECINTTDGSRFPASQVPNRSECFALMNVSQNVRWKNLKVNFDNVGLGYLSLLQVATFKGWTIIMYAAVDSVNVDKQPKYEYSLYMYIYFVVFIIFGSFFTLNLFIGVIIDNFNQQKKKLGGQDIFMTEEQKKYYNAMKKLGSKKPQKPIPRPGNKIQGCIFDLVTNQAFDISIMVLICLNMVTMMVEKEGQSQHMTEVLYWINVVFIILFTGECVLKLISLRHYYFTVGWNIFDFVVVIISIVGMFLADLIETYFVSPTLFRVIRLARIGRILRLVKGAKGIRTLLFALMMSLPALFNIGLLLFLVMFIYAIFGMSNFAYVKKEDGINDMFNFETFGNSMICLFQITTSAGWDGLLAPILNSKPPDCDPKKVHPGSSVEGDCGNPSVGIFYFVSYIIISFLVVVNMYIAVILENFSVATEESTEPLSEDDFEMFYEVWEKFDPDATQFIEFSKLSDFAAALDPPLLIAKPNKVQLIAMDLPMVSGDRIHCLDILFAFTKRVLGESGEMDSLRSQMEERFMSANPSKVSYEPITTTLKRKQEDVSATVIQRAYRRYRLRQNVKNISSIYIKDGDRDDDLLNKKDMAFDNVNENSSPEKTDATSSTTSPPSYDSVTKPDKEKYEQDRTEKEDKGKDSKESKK

In the case of `CC[C@H](C)[C@@H]1NC(=O)[C@@H]2CSSC[C@@H]3NC(=O)[C@H](C(C)C)NC(=O)[C@H](CC(C)C)NC(=O)[C@H](CC(N)=O)NC(=O)[C@@H]4CCCN4C(=O)[C@H](CCCNC(=N)N)NC(=O)[C@H](CSSC[C@H](NC(=O)[C@@H](N)CC(=O)O)C(=O)N[C@@H](CCCCN)C(=O)NCC(=O)N[C@@H](Cc4ccccc4)C(=O)N[C@@H](CCSC)C(=O)N[C@@H](CCCNC(=N)N)C(=O)N[C@@H](CCCCN)C(=O)N2)NC(=O)[C@H](CSSC[C@@H](C(=O)N[C@@H](CCCCN)C(=O)N[C@@H](Cc2ccc(O)cc2)C(=O)N[C@H](C(=O)N[C@@H](Cc2ccccc2)C(N)=O)C(C)C)NC(=O)[C@H](Cc2c[nH]c4ccccc24)NC(=O)[C@H](CCCCN)NC(=O)[C@H](Cc2cnc[nH]2)NC(=O)[C@H]([C@@H](C)O)NC(=O)[C@H](CCCNC(=N)N)NC(=O)[C@H](CO)NC3=O)NC(=O)[C@H](CCCCN)NC(=O)[C@H](CC(=O)O)NC(=O)[C@H](CC(N)=O)NC(=O)[C@H](CC(=O)O)NC(=O)[C@@H]2CCCN2C1=O` [SEQ ID NO: 38] (H-DCKGFMRKCIPDNDKCCRPNLVCSRTHKWCKYVF-NH2; disulfide 2-17, 9-23, 16-30), the IC50 in experiment [1] (setting [4]) came to 6.95 µM; in experiment [2] (setting [5]), 80 nM; in experiment [3] (setting [5]), 60 nM.

With `CC[C@H](C)[C@@H]1NC(=O)[C@@H]2CSSC[C@@H]3NC(=O)[C@H](C(C)C)NC(=O)[C@H](CC(C)C)NC(=O)[C@H](CC(N)=O)NC(=O)[C@@H]4CCCN4C(=O)[C@H](CCCNC(=N)N)NC(=O)[C@H](CSSC[C@H](NC(=O)[C@H](CC(=O)O)NC(=O)[C@@H](N)CCCNC(=N)N)C(=O)N[C@@H](CC(C)C)C(=O)NCC(=O)N[C@@H](Cc4ccccc4)C(=O)N[C@@H](CCSC)C(=O)N[C@@H](CCCNC(=N)N)C(=O)N[C@@H](CCCCN)C(=O)N2)NC(=O)[C@H](CSSC[C@@H](C(=O)N[C@@H](CCCCN)C(=O)N[C@@H](Cc2ccc(O)cc2)C(=O)N[C@H](C(=O)N[C@@H](Cc2ccccc2)C(N)=O)C(C)C)NC(=O)[C@H](Cc2c[nH]c4ccccc24)NC(=O)[C@H](CCCCN)NC(=O)[C@H](Cc2c[nH]cn2)NC(=O)[C@H]([C@@H](C)O)NC(=O)[C@H](CCCNC(=N)N)NC(=O)[C@H](CO)NC3=O)NC(=O)[C@H](CCCCN)NC(=O)[C@H](CC(=O)O)NC(=O)[C@H](CC(N)=O)NC(=O)[C@H](CC(=O)O)NC(=O)[C@@H]2CCCN2C1=O` [SEQ ID NO: 61], the IC50 in experiment [1] (setting [4]) is 15.1 µM; in experiment [2] (setting [5]), 170 nM; in experiment [3] (setting [5]), 80 nM.

With `CC[C@H](C)[C@@H]1NC(=O)[C@@H]2CSSC[C@@H]3NC(=O)[C@H](C(C)C)NC(=O)[C@H](CC(C)C)NC(=O)[C@H](CC(N)=O)NC(=O)[C@@H]4CCCN4C(=O)[C@H](CCCNC(=N)N)NC(=O)[C@H](CSSC[C@H](NC(=O)[C@@H](N)CC(=O)O)C(=O)N[C@@H](CC(C)C)C(=O)NCC(=O)N[C@@H](Cc4ccccc4)C(=O)N[C@@H](CCCNC(=N)N)C(=O)N[C@@H](CCCNC(=N)N)C(=O)N[C@@H](CCCCN)C(=O)N2)NC(=O)[C@H](CSSC[C@@H](C(=O)N[C@@H](CCCCN)C(=O)N[C@@H](Cc2ccc(O)cc2)C(=O)N[C@H](C(=O)N[C@@H](Cc2ccccc2)C(N)=O)C(C)C)NC(=O)[C@H](Cc2c[nH]c4ccccc24)NC(=O)[C@H](CCCCN)NC(=O)[C@H](Cc2cnc[nH]2)NC(=O)[C@H]([C@@H](C)O)NC(=O)[C@H](CCCNC(=N)N)NC(=O)[C@H](CO)NC3=O)NC(=O)[C@H](CCCCN)NC(=O)[C@H](CC(=O)O)NC(=O)[C@H](CC(N)=O)NC(=O)[C@H](CC(=O)O)NC(=O)[C@@H]2CCCN2C1=O` [SEQ ID NO: 64] (H-DCLGFRRKCIPDNDKCCRPNLVCSRTHKWCKYVF-NH2; disulfide 2-17, 9-23, 16-30), the IC50 in experiment [1] (IWQ Use Nav1.5) amounted to 17.6 µM; in experiment [2] (setting [5]) it was 6980 nM; in experiment [3] (setting [5]), 5900 nM.

Turning to `CC[C@H](C)[C@@H]1NC(=O)[C@@H]2CSSC[C@@H]3NC(=O)[C@H](C(C)C)NC(=O)[C@H](CC(C)C)NC(=O)[C@H](CC(N)=O)NC(=O)[C@@H]4CCCN4C(=O)[C@H](CCCNC(=N)N)NC(=O)[C@H](CSSC[C@H](NC(=O)[C@@H](N)CC(=O)O)C(=O)N[C@@H](CC(C)C)C(=O)NCC(=O)N[C@@H](Cc4ccccc4)C(=O)N[C@@H](CCSC)C(=O)N[C@@H](CCCNC(=N)N)C(=O)N[C@@H](CCCCN)C(=O)N2)NC(=O)[C@H](CSSC[C@@H](C(=O)N[C@@H](CCCCN)C(=O)N[C@@H](Cc2ccc(O)cc2)C(=O)N[C@H](C(=O)N[C@@H](Cc2ccccc2)C(N)=O)C(C)C)NC(=O)[C@H](Cc2c[nH]c4ccccc24)NC(=O)[C@H](CCCNC(=N)N)NC(=O)[C@H](Cc2cnc[nH]2)NC(=O)[C@H]([C@@H](C)O)NC(=O)[C@H](CCCNC(=N)N)NC(=O)[C@H](CO)NC3=O)NC(=O)[C@H](CCCCN)NC(=O)[C@H](CC(=O)O)NC(=O)[C@H](CC(N)=O)NC(=O)[C@H](CC(=O)O)NC(=O)[C@@H]2CCCN2C1=O` [SEQ ID NO: 72, [Arg28]GpTx-1], the IC50 worked out at 8.95 µM in experiment [1] (IWQ Use Nav1.5 (μM)); 80 nM in experiment [2] (Table 23, use, […]); 130 nM in experiment [3] (Table 23, use, […]).

Regarding `CC[C@H](C)[C@@H]1NC(=O)[C@@H]2CSSC[C@@H]3NC(=O)[C@H](C(C)C)NC(=O)[C@H](CC(C)C)NC(=O)[C@H](CC(N)=O)NC(=O)[C@@H]4CCCN4C(=O)[C@H](CCCNC(=N)N)NC(=O)[C@H](CSSC[C@H](NC(=O)[C@@H](N)Cc4c[nH]c5ccccc45)C(=O)N[C@@H](CC(C)C)C(=O)NCC(=O)N[C@@H](Cc4ccccc4)C(=O)N[C@@H](CCSC)C(=O)N[C@@H](CCCNC(=N)N)C(=O)N[C@@H](CCCCN)C(=O)N2)NC(=O)[C@H](CSSC[C@@H](C(=O)N[C@@H](CCCCN)C(=O)N[C@@H](Cc2ccc(O)cc2)C(=O)N[C@H](C(=O)N[C@@H](Cc2ccccc2)C(N)=O)C(C)C)NC(=O)[C@H](Cc2c[nH]c4ccccc24)NC(=O)[C@H](CCCCN)NC(=O)[C@H](Cc2cnc[nH]2)NC(=O)[C@H]([C@@H](C)O)NC(=O)[C@H](CCCNC(=N)N)NC(=O)[C@H](CO)NC3=O)NC(=O)[C@H](CCCCN)NC(=O)[C@H](CC(=O)O)NC(=O)[C@H](CC(N)=O)NC(=O)[C@H](CC(=O)O)NC(=O)[C@@H]2CCCN2C1=O` [SEQ ID NO: 81] (H-WCLGFMRKCIPDNDKCCRPNLVCSRTHKWCKYVF-NH2; disulfide 2-17, 9-23, 16-30), the IC50 in experiment [1] (IWQ Use Nav1.5) was found to be 8.79 µM; in experiment [2] (setting [5]), 50 nM; in experiment [3] (setting [5]), 100 nM.

Turning to `CC[C@H](C)[C@@H]1NC(=O)[C@@H]2CSSC[C@@H]3NC(=O)[C@H](C(C)C)NC(=O)[C@H](CC(C)C)NC(=O)[C@H](CC(N)=O)NC(=O)[C@@H]4CCCN4C(=O)[C@H](CCCNC(=N)N)NC(=O)[C@H](CSSC[C@H](NC(=O)[C@@H](N)CC(=O)O)C(=O)N[C@@H](CC(C)C)C(=O)NCC(=O)N[C@@H](Cc4c[nH]c5ccccc45)C(=O)N[C@@H](CCSC)C(=O)N[C@@H](CCCNC(=N)N)C(=O)N[C@@H](CCCCN)C(=O)N2)NC(=O)[C@H](CSSC[C@@H](C(=O)N[C@@H](CCCCN)C(=O)N[C@@H](Cc2ccc(O)cc2)C(=O)N[C@H](C(=O)N[C@@H](Cc2ccccc2)C(N)=O)C(C)C)NC(=O)[C@H](Cc2c[nH]c4ccccc24)NC(=O)[C@H](CCCCN)NC(=O)[C@H](Cc2cnc[nH]2)NC(=O)[C@H]([C@@H](C)O)NC(=O)[C@H](CCCNC(=N)N)NC(=O)[C@H](CO)NC3=O)NC(=O)[C@H](CCCCN)NC(=O)[C@H](CC(=O)O)NC(=O)[C@H](CC(N)=O)NC(=O)[C@H](CC(=O)O)NC(=O)[C@@H]2CCCN2C1=O` [SEQ ID NO: 82] (H-DCLGWMRKCIPDNDKCCRPNLVCSRTHKWCKYVF-NH2; disulfide 2-17, 9-23, 16-30), the IC50 in experiment [1] (setting [4]) was found to be 9.32 µM; in experiment [2] (setting [5]), 150 nM; in experiment [3] (setting [5]) it was 110 nM.

`CC[C@H](C)[C@@H]1NC(=O)[C@@H]2CSSC[C@@H]3NC(=O)[C@H](C(C)C)NC(=O)[C@H](CC(C)C)NC(=O)[C@H](CC(N)=O)NC(=O)[C@H](CO)NC(=O)[C@H](CO)NC(=O)[C@H](CCCNC(=N)N)NC(=O)[C@H](CSSC[C@H](NC(=O)[C@@H](N)CC(=O)O)C(=O)N[C@@H](CC(C)C)C(=O)NCC(=O)N[C@@H](Cc4ccccc4)C(=O)N[C@@H](CCSC)C(=O)N[C@@H](CCCNC(=N)N)C(=O)N[C@@H](CCCCN)C(=O)N2)NC(=O)[C@H](CSSC[C@@H](C(=O)N[C@@H](CCCCN)C(=O)N[C@@H](Cc2ccc(O)cc2)C(=O)N[C@H](C(=O)N[C@@H](Cc2ccccc2)C(N)=O)C(C)C)NC(=O)[C@H](Cc2c[nH]c4ccccc24)NC(=O)[C@H](CCCCN)NC(=O)[C@H](Cc2c[nH]cn2)NC(=O)[C@H]([C@@H](C)O)NC(=O)[C@H](CCCNC(=N)N)NC(=O)[C@H](CO)NC3=O)NC(=O)[C@H](CCCCN)NC(=O)[C@H](CC(=O)O)NC(=O)[C@H](CC(N)=O)NC(=O)[C@H](CC(=O)O)NC(=O)[C@@H]2CCCN2C1=O` [SEQ ID NO: 93, [Ser-Ser19]GpTx-1] (H-DCLGFMRKCIPDNDKCCRSSNLVCSRTHKWCKYVF-NH2; disulfide 2-17, 9-24, 16-31): the IC50 in experiment [1] (IonWorks Quattro, Use, read-out: IWQ Use Nav1.5) is 13.9 µM; in experiment [2] (Use) it was 270 nM; in experiment [3] (Use), 320 nM.
